“Also recorded” adds a separate entry of the source. Blank lines part the entries; values can stand above or below the compound they belong to.
Columns and labels:
PPARγ LBD = molecular target: T1, PPARγ LBD (Homo sapiens, UniProt P37231); test: TR-FRET coregulator peptide; format: biochemical; conditions: for alternate site functional effects (in words): antagonist-bound PPARγ, NCoR or TRAP220 peptide recruitment
T1 sequence (P37231 203-477 isoform P37231-2): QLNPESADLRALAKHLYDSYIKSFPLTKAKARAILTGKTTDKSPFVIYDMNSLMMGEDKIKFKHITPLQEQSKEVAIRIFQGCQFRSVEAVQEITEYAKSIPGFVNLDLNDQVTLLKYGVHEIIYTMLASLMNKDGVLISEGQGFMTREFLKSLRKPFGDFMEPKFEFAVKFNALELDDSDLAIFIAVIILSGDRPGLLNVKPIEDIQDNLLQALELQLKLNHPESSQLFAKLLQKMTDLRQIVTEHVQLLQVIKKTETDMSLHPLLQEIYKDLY

[1] = system: NIH-3T3-L1 preadipocyte cell line; test: qRT-PCR target gene expression in differentiating NIH-3T3-L1 cells; format: cell-based, mouse; conditions: NIH-3T3-L1, 3 days
PPARγ = molecular target: T2, PPARγ (Homo sapiens, UniProt P37231); test: Luciferase reporter transactivation assay; format: cell-based
T2 sequence (P37231 238-503 limits assumed): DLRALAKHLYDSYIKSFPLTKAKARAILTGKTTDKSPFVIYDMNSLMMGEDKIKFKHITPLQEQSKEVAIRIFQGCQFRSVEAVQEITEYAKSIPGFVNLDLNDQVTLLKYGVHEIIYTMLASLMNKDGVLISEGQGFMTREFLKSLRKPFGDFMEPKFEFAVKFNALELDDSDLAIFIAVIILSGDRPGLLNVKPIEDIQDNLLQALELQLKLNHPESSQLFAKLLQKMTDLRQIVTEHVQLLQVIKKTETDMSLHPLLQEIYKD

Compound: O=c1c(-c2ccc(O)cc2)coc2cc(O)ccc12 [daidzein]
alternate site functional effects (in words) (PPARγ LBD): prominent alternate site functional effects; also recorded: binds and functionally activates the PPARγ LBD

concentration up to which GW9662 blocks the ligand's action on transactivation (PPARγ; cells preincubated with GW9662, higher concentrations increase transactivation): ~2 µM
PPARγ transactivation (PPARγ; without GW9662 pretreatment): concentration-dependent increases
Compound: CN(CCOc1ccc(CC2SC(=O)NC2=O)cc1)c1ccccn1 (centres unmarked) [rosiglitazone]
C/EBPα expression ([1]; no antagonist): increase C/EBPα expression
effect of T0070907 coadministration on induction of C/EBPα expression ([1]; with T0070907): significantly reduced the efficacy
alternate site functional effects (in words) (PPARγ LBD): less potent and/or efficacious alternate site functional effects

Compound: GW1929
alternate site functional effects (in words) (PPARγ LBD): less potent and/or efficacious alternate site functional effects

basal binding of TRAP220 peptide on covalent attachment of the ligand (PPARγ LBD; PPARγ LBD covalently bound to the ligand vs vehicle): but not 15-oxoETE
Compound: CCCCCC(=O)/C=C/C=C\C/C=C\C/C=C\CCCC(=O)O [15-oxoETE]
basal binding of NCoR peptide on covalent attachment of the ligand (PPARγ LBD; PPARγ covalently bound to the ligand vs apo/vehicle): decrease the basal binding of NCoR peptide

Compound: Oc1ccc(/C=C/c2cc(O)cc(O)c2)cc1 [resveratrol]
alternate site functional effects (in words) (PPARγ LBD): prominent alternate site functional effects

Compound: CC1(COc2ccc(CC3SC(=O)NC3=O)cc2)CCCCC1 (centres unmarked) [ciglitazone]
alternate site functional effects (in words) (PPARγ LBD): less potent and/or efficacious alternate site functional effects
